Source: patent publication US20240425491A1, “HETEROARYL COMPOUNDS USEFUL IN THE TREATMENT OF COGNITIVE DISORDERS” (University College Cardiff Consultants Limited, priority 2021, published 2024)
Counter-ions that a name gives are not always drawn.

Assays:
[1] = target: T1, human recombinant GABAAR containing α5β3γ2 subunits (benzodiazepine site) (Homo sapiens, UniProt P18507+P31644); test: In vitro radioligand binding assay (α5-GABAAR Ki); conditions: inhibition of [3H]Ro15-1788 binding, membranes of L(tk−) cells expressing human α5β3γ2; read-out: α5-GABAAR Ki
T1 construct: expressed in transfected cells; host or cells: mouse L(tk−) cells, dexamethasone-inducible vector pMSGneo
T1 sequence (P31644 32-462): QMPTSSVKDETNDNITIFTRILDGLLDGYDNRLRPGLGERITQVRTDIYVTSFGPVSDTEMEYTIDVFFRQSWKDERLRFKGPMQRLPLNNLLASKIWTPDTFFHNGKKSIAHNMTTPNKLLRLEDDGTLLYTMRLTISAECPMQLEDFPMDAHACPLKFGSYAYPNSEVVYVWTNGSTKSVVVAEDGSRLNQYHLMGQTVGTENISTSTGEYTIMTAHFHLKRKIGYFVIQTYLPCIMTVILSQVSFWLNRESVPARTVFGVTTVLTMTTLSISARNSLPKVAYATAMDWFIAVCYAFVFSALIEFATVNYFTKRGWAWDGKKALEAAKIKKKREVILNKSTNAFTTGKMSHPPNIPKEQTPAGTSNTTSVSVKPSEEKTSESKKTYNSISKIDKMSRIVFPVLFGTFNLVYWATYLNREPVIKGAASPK
T1 sequence (P28472 26-473 partner): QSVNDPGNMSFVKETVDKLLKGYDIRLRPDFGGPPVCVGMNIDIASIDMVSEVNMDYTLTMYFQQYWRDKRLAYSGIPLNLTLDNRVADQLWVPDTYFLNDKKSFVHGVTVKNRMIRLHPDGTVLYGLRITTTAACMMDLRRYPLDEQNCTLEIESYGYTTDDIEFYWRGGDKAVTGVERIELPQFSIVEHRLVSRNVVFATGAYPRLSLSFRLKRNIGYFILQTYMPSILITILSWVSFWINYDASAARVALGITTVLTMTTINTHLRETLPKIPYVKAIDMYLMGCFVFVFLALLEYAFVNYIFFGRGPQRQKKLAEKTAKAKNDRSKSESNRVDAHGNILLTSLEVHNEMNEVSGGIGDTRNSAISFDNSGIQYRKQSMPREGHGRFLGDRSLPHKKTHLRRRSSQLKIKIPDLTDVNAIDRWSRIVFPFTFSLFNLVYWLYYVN
T1 sequence (P18507 40-475): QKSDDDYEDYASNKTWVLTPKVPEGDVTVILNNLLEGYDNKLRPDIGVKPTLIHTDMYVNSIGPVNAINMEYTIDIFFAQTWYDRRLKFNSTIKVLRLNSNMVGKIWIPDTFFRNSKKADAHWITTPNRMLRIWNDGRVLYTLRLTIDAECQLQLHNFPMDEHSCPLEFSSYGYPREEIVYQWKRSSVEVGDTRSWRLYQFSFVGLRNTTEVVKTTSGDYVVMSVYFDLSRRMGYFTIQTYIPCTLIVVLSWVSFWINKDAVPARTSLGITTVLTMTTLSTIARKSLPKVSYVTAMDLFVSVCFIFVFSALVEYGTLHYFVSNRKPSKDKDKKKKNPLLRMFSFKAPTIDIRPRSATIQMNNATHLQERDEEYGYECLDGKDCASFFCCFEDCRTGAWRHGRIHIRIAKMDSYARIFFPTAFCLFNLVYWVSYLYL
Summary of the method: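 Displacement of 4 nM [^3H]flumazenil from the benzodiazepine site, read by filtration and scintillation, gave IC50, converted to Ki (Cheng-Prusoff, saturation-derived Kd). Receptor: human α5β3γ2 membranes from L(tk^−) cells, 50 μg protein/well; 1 h, 4° C; TP003 1 μM defined nonspecific binding.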

[2] = target: T2, human α5β3γ2L GABAA receptors in HEK293 cells (Homo sapiens, UniProt P18507+P31644); test: In vitro electrophysiological recording assay (α5-GABAAR relative efficacy), SyncroPatch; format: cell-based; conditions: Conc 0.1 μM; GABA EC10-20
T2 construct: expressed in transfected cells
T2 sequence (P31644 32-462): as the sequence (P31644 32-462) above
T2 sequence (P28472 26-473 partner): as the sequence (P28472 26-473 partner) above
T2 sequence (P18507 40-475): as the sequence (P18507 40-475) above
Excerpt: Mouse L(tk^−) cells stably expressing human α1β3γ2, α2β3γ2, α3β3γ2, α5β3γ2 GABAARs generated by transfection of the individual subunits in the dexamethasone-inducible expression vector pMSGneo in mouse L(tk^−) cells (Hadingham et al., 1993, Mol. Pharmacol. 43:970-975 and 1993, Mol. Pharmacol. 44:1211-1218) were used for binding and functional assays. For certain compounds, HEK293 cells stable expressing the human α1β3γ2L, α2β3γ2L, α3β3γ2L and α5β3γ2L GABAA receptors were used to evaluate their functional effects in a SyncroPatch electrophysiology assay.
The efficacy of modulators was evaluated using either the automated patch-clamp platform QPatch16 (Sophion, Copenhagen, Denmark) or the SyncroPatch 384i (Nanion Technologies, Germany). Cells were harvested from flasks by enzymatic dissociation and re-suspended in serum-free medium.
For the Syncropatch recordings, a stacked addition protocol was used, in which GABA was rapidly applied and then washed off from the cell. All experiments were carried out at room temperature (20-22° C.) using a standard whole cell procedure. The currents recorded were acquired at 2 kHz and filtered using a Bessel filter. Whole-cell currents were measured at a holding potential of −80 mV.
For Syncropatch recordings, the extracellular recording solution contained: 140 mM NaCl, 4 mM KCl, 2 mM CaCl2), 1 mM MgCl2, 10 mM HEPES, 5 mM glucose (pH 7.4 and osmolarity of c. 300-310 mOsm/L). The intracellular recording solution contained: 90 mM KCl, 50 mM KF, 1.5 mM MgCl2, 11.1 mM EGTA and 10 mM HEPES (pH 7.2 and osmolarity of c. 300 mOsm/L). 2 mM of NaATP was added to the intracellular solution on the day of testing.
The effects of modulators were evaluated in the presence of a submaximal GABA concentration, giving typically 10-20% activation (GABA EC10-20) of the response elicited by a saturating GABA concentration. For QPatch recordings, to check and ensure baseline current stability before compound addition, five consecutive applications of GABA EC10-20 alone (each application with a 2 s duration, separated by minimum 1 min wash off periods) were performed before compound addition. The test compound was applied using the pipetting system of the QPatch system 1 min at least prior to co-application with GABA EC10-20. For SyncroPatch recordings, GABA EC20 alone was applied three times (1 s long applications, with wash steps in-between) before compound addition. This was followed by a 1-2 min pre-incubation with the test compound and then re-application of GABA EC10-20 in the presence of the compound. Finally, following a further wash step, a saturating concentration of GABA was applied, allowing the accurate evaluation for each cell of the percentage baseline activation elicited by the submaximal GABA applied.
The compounds were first dissolved in DMSO as a 10 mM stock and then further diluted to the testing concentrations so that the final DMSO concentration in the extracellular recording solution was kept constant at 0.1% for the QPatch recordings, or 0.2% for the SyncroPatch recordings.
The % efficacy of modulators was determined from the GABA elicited currents recorded in the presence and absence of the test compound, using the formula:
[((compound peak current−leak)−(GABA peak current−leak))/(GABA peak current−leak)]*100,
where ‘leak’ is the leak baseline current at −65 mV, ‘compound peak current’ is the current elicited by co-application of compound and GABA, and ‘GABA peak current’ is the current elicited by GABA alone during the 5th GABA application. The results were presented as ‘relative efficacy’ for each compound generally at a concentration equal or higher than 100 times their determined Ki. The relative efficacy of a compound was calculated by normalising its efficacy to the efficacy of methyl-6,7-dimethoxy-4-ethyl-beta-carboline-3-carboxylate (DMCM) that was separately determined produced an attenuation of GABA-induced currents of −57±4%, n=5.

[3] = target: T3, human α5β3γ2 GABAARs in mouse L(tk−) cells (Homo sapiens, UniProt P18507+P31644); test: In vitro electrophysiological recording assay (α5-GABAAR relative efficacy), QPatch; format: cell-based; conditions: GABA EC10-20
T3 construct: expressed in transfected cells; host or cells: mouse L(tk−) cells, dexamethasone-inducible vector pMSGneo
T3 sequence (P31644 32-462): as the sequence (P31644 32-462) above
T3 sequence (P28472 26-473 partner): as the sequence (P28472 26-473 partner) above
T3 sequence (P18507 40-475): as the sequence (P18507 40-475) above
Summary of the method: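 Whole-cell QPatch recordings at 20-22° C, −65 mV holding, in dexamethasone-induced (1 μM, 24 h) L(tk−) cells. Compound pre-applied ≥1 min, then co-applied with GABA EC10-20; percentage change in leak-corrected peak current, taken at ≥100× Ki, normalised to DMCM efficacy; 0.1% DMSO final.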

Row | Compound | Ki [1] | α5-GABAAR Relative Efficacy (to DMCM), SyncroPatch [2] | α5-GABAAR Relative Efficacy (to DMCM), Qpatch ([3]; Conc 0.3 μM) | α5-GABAAR Relative Efficacy (to DMCM), Qpatch ([3]; Conc 3 μM) | α5-GABAAR Relative Efficacy (to DMCM), Qpatch ([3]; Conc 0.1 μM) | α5-GABAAR Relative Efficacy (to DMCM), Qpatch ([3]; Conc 1 μM)
1 | COc1nc(-c2cnc(CN)nc2)ccc1NC(=O)c1c(-c2ccccc2)noc1C.Cl [Example 126, N-[6-[2-(Aminomethyl)pyrimidin-5-yl]-2-methoxy-3-pyridyl]-5-methyl-3-phenyl-isoxazole-4-carboxamide hydrochloride] | 1.1 nM | −0.55 | −0.68 |  |  | 
2 | COc1nc(-c2ccc(N)nn2)ccc1NC(=O)c1c(-c2ccccc2)noc1C [Example 127, N-[6-(6-Aminopyridazin-3-yl)-2-methoxy-3-pyridyl]-5-methyl-3-phenyl-isoxazole-4-carboxamide] | 21.8 nM | −0.57 |  | −0.72 |  | 
3 | COc1nc(-c2cnc(C(N)=O)nc2)ccc1NC(=O)c1c(-c2ccccc2)noc1C [Example 129, N-[6-(2-Carbamoylpyrimidin-5-yl)-2-methoxy-3-pyridyl]-5-methyl-3-phenyl-isoxazole-4-carboxamide] | 0.8 nM | −0.72 |  |  | −0.77 | 
4 | COc1nc(-c2cnc3n2CCN(C)C3)ccc1NC(=O)c1c(-c2ccccc2)noc1C [Example 137, N-(2-Methoxy-6-(7-methyl-5,6,7,8-tetrahydroimidazol[1,2-a]pyrazin-3-yl)pyridin-3-yl)-5-methyl-3-phenylisoxazole-4-carboxamide] | 3.8 nM | −0.69 |  |  |  | −0.80
5 | COc1nc(-n2ccnc2)ccc1NC(=O)c1c(-c2ccc(F)cc2)noc1C [Example 141, 3-(4-Fluorophenyl)-N-(6-imidazol-1-yl-2-methoxy-3-pyridyl)-5-methyl-isoxazole-4-carboxamide] | 1.9 nM | −1.13 | −0.93 |  |  | 
6 | COc1nc(-c2cnc3n2CCN(C(C)=O)C3)ccc1NC(=O)c1c(-c2ccccc2)noc1C [Example 143, N-(6-(7-Acetyl-5,6,7,8-tetrahydroimidazo[1,2-a]pyrazin-3-yl)-2-methoxypyridin-3-yl)-5-methyl-3-phenylisoxazole-4-carboxamide] | 0.4 nM | −0.72 |  |  | −0.80 | 
7 | COc1nc(-c2cnc(CN(C)C)nc2)cnc1NC(=O)c1c(-c2ccccc2)noc1C [Example 144, N-[5-[2-[(Dimethylamino)methyl]pyrimidin-5-yl]-3-methoxy-pyrazin-2-yl]-5-methyl-3-phenyl-isoxazole-4-carboxamide] | 1.4 nM | −1.05 | −0.95 |  |  | 
8 | COc1nc(-c2cnc(CN)nc2)cnc1NC(=O)c1c(-c2ccccc2)noc1C.Cl [Example 156, N-[5-[2-(Aminomethyl)pyrimidin-5-yl]-3-methoxy-pyrazin-2-yl]-5-methyl-3-phenyl-isoxazole-4-carboxamide hydrochloride] | 2.7 nM | −0.65 | −0.91 |  |  | 
9 | COc1nc(-c2ccn3nc(N)nc3c2)ccc1NC(=O)c1c(C)nnn1-c1ccccc1 [Example 159, N-(6-(2-Amino-[1,2,4]triazolo[1,5-a]pyridin-7-yl)-2-methoxypyridin-3-yl)-4-methyl-1-phenyl-1H-1,2,3-triazole-5-carboxamide] | 9.2 nM | −0.81 |  |  |  | −0.82
10 | COc1nc(-n2cnc3c2CNCC3)ccc1NC(=O)c1c(-c2ccccc2)noc1C.Cl.Cl [Example 179, N-[2-Methoxy-6-(4,5,6,7-tetrahydroimidazo[4,5-c]pyridin-3-yl)-3-pyridyl]-5-methyl-3-phenyl-isoxazole-4-carboxamide dihydrochloride] | 3 nM | −0.38 | −0.65 |  |  | 
11 | COc1nc(-c2cnc(CN)nc2)ccc1NC(=O)c1c(-c2ccccc2)nnn1C.Cl [Example 180, N-(6-(2-(Aminomethyl)pyrimidin-5-yl)-2-methoxypyridin-3-yl)-1-methyl-4-phenyl-1H-1,2,3-triazole-5-carboxamide hydrochloride] | 3.9 nM | −0.48 |  |  |  | −0.63
12 | COc1nc(-c2cnc(CN)nc2)ccc1NC(=O)c1c(-c2ccc(F)cc2)noc1C.Cl [Example 185, N-[6-[2-(Aminomethyl)pyrimidin-5-yl]-2-methoxy-3-pyridyl]-3-(4-fluorophenyl)-5-methyl-isoxazole-4-carboxamide hydrochloride] | 0.5 nM | −1.23 |  |  | −0.79 | 
13 | COc1nc(-c2cnc(OC3CNC3)nc2)ccc1NC(=O)c1c(-c2ccccc2)noc1C [Example 189, N-[6-[2-(Azetidin-3-yloxy)pyrimidin-5-yl]-2-methoxy-3-pyridyl]-5-methyl-3-phenyl-isoxazole-4-carboxamide] | 0.7 nM | −0.72 |  |  | −0.70 | 
14 | CNCc1ccc(-c2ccc(NC(=O)c3c(-c4ccccc4)noc3C)c(OC)n2)cn1 [Example 190, N-[2-Methoxy-6-[6-(methylaminomethyl)-3-pyridyl]-3-pyridyl]-5-methyl-3-phenyl-isoxazole-4-carboxamide] | 1.1 nM | −0.72 |  |  | −0.59 | 
15 | COc1nc(-c2nnc3n2CCNC3)ccc1NC(=O)c1c(-c2ccccc2)noc1C [Example 196, N-(2-Methoxy-6-(5,6,7,8-tetrahydro-[1,2,4]triazolo[4,3-a]pyrazin-3-yl)pyridin-3-yl)-5-methyl-3-phenylisoxazole-4-carboxamide dihydrochloride] | 23.5 nM | −0.68 |  | −0.71 |  | 
16 | COc1nc(-c2ccc(CN)nc2)ccc1NC(=O)c1c(-c2ccccc2)noc1C.Cl [Example 199, N-[6-[6-(Aminomethyl)-3-pyridyl]-2-methoxy-3-pyridyl]-5-methyl-3-phenyl-isoxazole-4-carboxamide hydrochloride] | 1.6 nM | −0.93 | −0.82 |  |  | 
